Key:
thoracic aorta = test: Relaxation of phenylephrine-contracted thoracic aorta ring strips (vasodilation), Pharmacological Experiment 2; details: Oryctolagus cuniculus; phenylephrine 10^-6 M; rabbit aorta ring strips; read-out: Vasodilation, IC50, concentration required to inhibit phenylephrine-induced contraction by half
Experimental: Male rabbits (weighing 1.9-3.0 kg) were anesthetized with sodium pentobarbital and dehematized to remove thoracic aorta. Ring strips (about 2 mm wide) were prepared and suspended in a 40 ml-Magnus bath filled with Krebs-Henseleit solution (NaCl 117 mM; KCl 4.7 mH; CaCl2 2.5 mH; MgSO4 1.2 mM; NaHCO3 24.8 mM; KH2 PO4 1.2 mM; glucose 11.0 mM). The resting tension of 2 g was applied. The Magnus bath was constantly aerated with a mixed gas (95% oxygen+5% carbon dioxide gas). The tension of the strips was measured by an isometric transducer (TB-611T, Nihon Kohden, Japan). The strips were contracted with phenylephrine (10^-6 M) and after the contraction became stable, the compounds were cumulatively added to the bath and relaxing response was observed. The vasodilating action of the compounds was expressed as IC50 (μM), the concentration required to inhibit phenylephurine-induced contraction (which was taken as 100%) by half.

trachea = test: Effect on acetylcholine-induced contraction of isolated trachea strips (bronchodilation), Pharmacological Experiment 4; parameters: species or system guinea pig (Hartley); details: Cavia porcellus; acetylcholine 10^-6 M contraction; papaverine 10^-4 M response taken as 100%
Experimental: Male Hartley guinea pigs weighing 260-390 g were anesthetized with sodium pentobarbital (100 mg/kg, i.p.). The guinea pigs were then dehematized and trachea was isolated. Ventral cartilage of the trachea was incised and ligament was insected to give 3 mm wide strips. The strips were suspended in a 40 ml-Magnus bath filled with Krebs-Henseleit solution (NaCl 117 mM; KCl 4.7 mM; CaCl2 2.5 mM; MgSO4 1.2 mM; NaHCO3 24.8 mM; KH2 PO4 1.2 mM; glucose 11.0 mM). The resting tension of 1 g was applied. The Magnus bath was constantly aerated with a mixed gas (95% oxygen+5% carbon dioxide gas). The tension of the strips was measured with an isometric transducer (TB-611T, Nihon Kohden, Japan) and recorded on a recorder (Ti-102, Tokai Irika, Japan). The strips were contracted with acetylcholine (10^-6 M) and after the contraction became stable, the compounds were cumulatively added to the bath and relaxing response was observed. The relaxation by the compounds was expressed as IC50 (μM), the concentration required to inhibit the papaverine (10^-4 M)-induced response (which was taken as 100%) by half.

left coronary artery = test: Effect on coronary blood flow, perfused left coronary artery of anesthetized dogs, Pharmacological Experiment 3; format: in vivo, mongrel dog; details: intracoronary injection; for Increase in coronary blood flow, ED50: dose giving half of the effect of 3 μg nifedipine
Experimental: Groups of 2 or 3 adult mongrel dogs were anesthetized with an intravenous administration of 30 mg/kg body weight of sodium pentobarbital. According to the method of Yago et al [Folia Pharmacologica Japonica, vol. 57, p. 380 (1961)], the left coronary artery was perfused and its blood flow was measured. Test compound was injected into the coronary artery at a volume of 10-300 μg. The effects of the test compound on coronary blood flow were expressed as ED50 (μg), the dose required to increase the coronary blood flow by a half of the effects by the coronary artery injection of 3 μg of nifedipine [dimethyl 2,6-dimethyl-4-(2-nitrophenyl)-1,4-dihydropyridine-3,5-dicarboxylate].
The half life (T 1/2, minute) was also measured as the duration of effects.

[1] = Antihypertensive action in conscious, unrestrained SHR (i.v.), Pharmacological Experiment 1; format: in vivo, spontaneously hypertensive rats (SHR); details: 0.3 mg/kg i.v., change in blood pressure
Source text: Catheters for blood pressure measurement and for drug administration were previously inserted into carotid artery and jugular vein of spontaneously hypertensive rats (SHR) weighing 350-450 g. […] The blood pressure was automatically measured and analyzed with a pressure transducer.

[2] = tested on: experimental asthma caused by histamine inhalation; test: Effects on experimental asthma caused by histamine inhalation, Pharmacological Experiment 5; format: in vivo, guinea pig (Hartley); details: 0.2% histamine
Experimental: According to Suyama [Allergy, vol. 15, p. 549 (1966)], female Hartley guinea pigs weighing 490-630 g were placed in an aerosol inhalation device, and 0.2% histamine solution (histamine chloride, Nakarai Kagaku, Japan) was sprayed with an ultrasonic nebulizer (TUR-3200, Nihon Kohden, Japan). Protective action was examined using collapsing as an index. Inhalation of the test compound was performed by placing the guinea pigs in the aforementioned aerosol inhalation device and spraying the test compound dissolved in a physiological saline to a predetermined concentration for 5 minutes. Then, the guinea pigs were allowed to immediately inhale histamine and delay in collapsing by dyspnea was measured.

Compound: C[C@@H](N)[C@H]1CC[C@H](C(=O)Nc2ccnc3[nH]ccc23)CC1 [Example 3, (+)-trans-N-(1H-pyrrolo[2,3-b]pyridin-4-yl)-4-(1-aminoethyl)cyclohexanecarboxamide]
- IC50 (thoracic aorta): 90 nM
- IC50 (trachea): 60 nM
- Increase in coronary blood flow, T 1/2 (half life as duration of effects) (left coronary artery): 2.7 min
- Increase in coronary blood flow, ED50 (left coronary artery): 8.8 µg
- Antihypertensive action (SHR i.v.) [1]: -62 mmHg
- Average time until collapsing ([2]; 0.01% inhaled for 5 minutes): 152.4 ± 12.2 s
- Average time until collapsing ([2]; 0.1% inhaled for 5 minutes): 235.4 ± 40.2 s

Compound: CC(C)(N)[C@H]1CC[C@H](C(=O)Nc2ccnc3[nH]ccc23)CC1 [Example 4, trans-N-(1H-pyrrolo[2,3-b]pyridin-4-yl)-4-(1-amino-1-methylethyl)cyclohexanecarboxamide]
- IC50 (thoracic aorta): 80 nM
- IC50 (trachea): 90 nM
- Increase in coronary blood flow, T 1/2 (half life as duration of effects) (left coronary artery): 3.8 min
- Increase in coronary blood flow, ED50 (left coronary artery): 7.0 µg
- Antihypertensive action (SHR i.v.) [1]: -77 mmHg

Compound: C[C@@H](N)[C@H]1CC[C@H](C(=O)Nc2ccnc3[nH]ncc23)CC1 [Example 6, (+)-trans-N-(1H-pyrazolo[3,4-b]pyridin-4-yl)-4-(1-aminoethyl)cyclohexanecarboxamide]
- IC50 (thoracic aorta): 120 nM
- IC50 (trachea): 170 nM
- Increase in coronary blood flow, T 1/2 (half life as duration of effects) (left coronary artery): 3.0 min
- Increase in coronary blood flow, ED50 (left coronary artery): 4.3 µg
- Antihypertensive action (SHR i.v.) [1]: -96 mmHg

Compound: CC(C)(N)[C@H]1CC[C@H](C(=O)Nc2ccnc3[nH]ncc23)CC1 [Example 7, trans-N-(1H-pyrazolo[3,4-b]pyridin-4-yl)-4-(1-amino-1-methylethyl)cyclohexanecarboxamido]
- IC50 (thoracic aorta): 190 nM
- IC50 (trachea): 310 nM
- Increase in coronary blood flow, T 1/2 (half life as duration of effects) (left coronary artery): 6.7 min
- Increase in coronary blood flow, ED50 (left coronary artery): 20 µg
- Antihypertensive action (SHR i.v.) [1]: -53 mmHg

Source: US5478838A, “4-amino(alkyl)cyclohexane-1-carboxamide compound and use thereof” (Yoshitomi Pharmaceutical Industries, Ltd., priority 1991, dated 1995)
